This test deals with E. coli (KCTC 2571 (ATCC 8739)). The test is described as follows: Inhibitory effect on E. coli biofilm formation. Format: cell-based, Escherichia coli. Particulars: 0.006-4.8 μg/ml; 48 hours; compared with control (CT). As to the method:
The inhibitory effect of the compound of Example 1-2 on biofilm formation in E. coli (KCTC 2571 (ATCC 8739); available from the Korean Collection for Oral Microbiology (KCOM)) was confirmed.
Sterilized cover glass slips (round, 12 mm radius) were placed individually at a bottom of each well of a cell culture plate (24-well plate) using forceps, and the compound of Example 1-2 was diluted in the medium (LB medium) to be cultured with bacteria so that the final concentrations were 0.006 μg/ml, 0.06 μg/ml, 0.6 μg/ml, 1.2 μg/ml, 2.4 μg/ml, and 4.8 μg/ml.
The prepared culture medium was dispensed into a cell culture plate in which glass slips were placed, and the bacteria were inoculated to a concentration of 2×10^7 cells/ml. […]
The biofilm in which bacteria cultured for each group were formed on glass slips was stained with 1% crystal violet solution for 15 minutes, and then washed three times with PBS (phosphate buffered saline) solution, and decolorized with acetone-alcohol (20:80, vol/vol). After the decolorizing solution containing crystal violet was put in 200 μl increments in a 96-well microplate for each group, the absorbance (OD590nm) was measured using an absorbance microplate reader (Epoch2, Bio-Tek, USA), and the biofilm formation levels were compared.

Each structure is given as a SMILES string.

From patent US20250134860A1, “NOVEL COMPOUND, AND COMPOSITION FOR PREVENTING, ALLEVIATING OR TREATING BACTERIAL INFLAMMATION AND INFLAMMASOME-MEDIATED DISEASES, COMPRISING SAME AS ACTIVE INGREDIENT” (Quorum Bio Co., Ltd., priority 2022, published 2025) come the findings set out here.

Turning to `Cc1ccc(C(=C2c3ccccc3C(=O)N2C)c2ccc(C)cc2)cc1` [Example 1-2, 3-(di-p-tolylmethylene)-2-methylisoindolin-1-one], the “biofilm formation of E. coli” value is “significantly suppressed in a concentration-dependent manner”.
